# Measurements: patent US11639368B2, “Method for preventing and treating hyperpermeability” (Apeptico Forschung UND E[…], priority 2009, dated 2023)
# Entries after “also recorded” stand apart in the source; their conditions may differ.
# Assays:
# [1] = test system: arterial endothelial cells; assay: Reactive oxygen molecules in endothelial cells under oxygen deficiency, measured by EPR; assay type: cell-based; conditions: oxygen deficiency (0.1% oxygen, hypoxic gas mixture), 50 μg/ml of peptide
# Protocol: Cell Culture of Endothelial Cells
# For the generation of reactive oxygen molecules, arterial endothelial cells were cultivated in an oxygen-deficient gas mixture of 0.1% oxygen, 5% […] and 94.9% nitrogen (hypoxic gas mixture). In control experiments, the gas concentrations were 21% oxygen, 5% […] and 74% nitrogen (normoxic gas mixture).
# After 90 minutes under oxygen-deficient conditions, the endothelial cells were cultivated with 21% oxygen for a further 30 minutes. Thereafter, 20 μl of a solution consisting of 20 uM 1-hydroxy-3-methoxycarbonyl-2,2,5,5-tetramethylpyrrolidine HCl (CHM), 20 μM DPBS, 25 μM desferrioxamine and 5 μM diethyldithiocarbamate as well as 2 μl of DMSO were added to the cells.
# Trypsinization of the Cells.
# Following cell culture, the cells were individualized in a manner common in the laboratory by adding a trypsin solution. The endothelial cells were washed and suspended in 35 μl of a solution consisting of DPBS and 25 μM desferrioxamine and 5 μM diethyldithiocarbamate.
# Measurement of the Electron Paramagnetic Resonance (EPR)
# The determination of the electron paramagnetic resonance (EPR), also called electron spin resonance, serves the investigation of paramagnetic substances, e.g. for detection of unpaired electrons in reactive oxygen molecules (radicals of the oxygen). […]
# [2] = test system: human endothelial cells of the lungs; assay: Toxin-induced hyperpermeability, transendothelial electric resistance (ECIS), endothelial cells; assay type: cell-based; conditions: 500 ng/ml of listeriolysin, 50 μg/ml of peptide
# [3] = test system: Human epithelial cells of the lungs of type H441; assay: Toxin-induced hyperpermeability, electric resistance (ECIS), epithelial cells; assay type: cell-based; conditions: 1 μg/ml of listeriolysin, 50 μg/ml of peptide
# Protocol: (§1) Human epithelial cells of the lungs of type H441 were acquired from the company ATTC.
# (§2) The microbial toxins listeriolysin (LLO) and pneumolysin (PLY) were acquired from the University of Giessen.
# Epithelial cells of the lungs of type H441 were cultivated in a manner common in the laboratory in a commercial RPMI 1640 medium with the additives 2 mM L-glutamine, 1.5 g/l of sodium carbonate, 4.5 g/l of glucose, 10 mM HEPES buffer pH 7.4, 10% bovine serum. The ECIS experiments took place in serum-free medium.
# In order to cause hyperpermeability, i.e. injuries of the endothelial cells and epithelial cells, the human epithelial cells of the lungs as well as the human endothelial cells of the lungs were cultivated in a manner common in the laboratory up to the formation of a continuous cell layer, and subsequently, the toxins listeriolysin or pneumolysin, respectively, were added.
# myosin light chain = assay: Phosphorylation of the myosin light chain (protein blot, densitometry); assay type: cell-based; conditions: human endothelial lung cells; for increase in the content of phosphorylated myosin light chain by listeriolysin: 250 ng/ml of listeriolysin, 50 μg/ml of peptide
# Excerpt: Human endothelial cells of the lungs, isolated from capillaries of the lungs, were acquired from the company Lonza.
# as §2
# Human endothelial cells of the lungs, isolated from capillaries of the lungs, were cultivated in a manner common in the laboratory.
# Determination of Phosphorylation of the Myosin Light Chain
# For the determination of phosphorylation of the myosin light chain and the influence of the peptide SEQ ID No. 1 on the phosphorylation, the previously cultivated human endothelial cells of the lungs were washed with phosphate buffer pH 7.4, which contained 1 mM orthovanadate. The cell contents was lysed by incubation of the cells with a solution of 20 mM tris buffer (pH 7.4), 150 mM mol/1 of NaCl, 1 mM EDTA, 1 mM EGTA, 1% Triton X-100, 2.5 mM sodiumpyrophosphate, 1 mM betaglycerophosphate, 1 mM sodiumvanadate, 1 μg/ml of leupeptine, 1 mM phenylmethylsulfonylfluoride. In addition, the cells were digested with ultrasound. The cell lysate was centrifuged in order to obtain the soluble components. The soluble cell lysate was subsequently applied to denaturing sodium dodecyl sulfate polyacrylamide gel electrophoresis in a manner common in the laboratory, and the proteins were separated according to their masses. Thereafter, the proteins were transferred onto nitrocellulose membranes. The protein blots were treated with a solution of 0.1% Tween 20 and 5% dry milk powder for 1 hour in a manner common in the laboratory. Subsequently, the protein blots were incubated with antibodies directed against either the myosin light chain or the phosphorylated myosin light chain.
# In order to make either the myosin light chain or the phosphorylated myosin light chain visible, the antibodies were made visible on diagnostic film using chemiluminescence in a manner common in the laboratory. The signal strength was determined with densitometry, and the ratio of myosin light chain to phosphorylated myosin light chain was determined.
# [4] = test system: epithelial sodium channel (ENaC); assay: Expression of the epithelial sodium channel by real-time PCR in H441 cells; assay type: cell-based, human; conditions: 50 μg/ml of peptide, H441 epithelial cells of the lungs
# Protocol: as §1
# Epithelial cells of the lungs of type H441 were cultivated in a manner common in the laboratory in a commercial RPMI 1640 medium with the additives 2 mM L-glutamine, 1.5 g/l of sodium carbonate, 4.5 g/l of glucose, 10 mM HEPES buffer pH 7.4, 10% bovine serum.
# Verification of the Expression of the Epithelial Sodium Channel
# In the cultivated epithelial cells, the expression of the sodium channel (ENaC) was determined by means of “real-time PCR”.
# influenza A virus = assay: Course of disease in mice with viral lung infection; assay type: in vivo, BALB/c mice; conditions: influenza A infected mice
# Protocol: The following animal study groups were examined in respect of the effect of peptide SEQ ID No. 1 on a viral lung infection:
# Group 1. Negative control (PBS via nasal).
# Group 2. Positive control (infection with approx. 2,000 units of influenza A virus via nasal).
# Group 3. Test group (infection with approx. 2,000 units of influenza A virus via nasal, as well as intratracheal administration of 10 μg of peptide SEQ ID No. 1).
# In each group, 6 BALB/c mice were used.
# The following treatment scheme was followed:
# Group 1: Administration of PBS via nasal.
# Group 2: Infection of the mice with influenza virus A via nasal.
# Group 3: Infection of the mice with influenza virus A via nasal and administration of peptide SEQ ID No. 1.
# Days of treatment 0, 2, 4, 6, 8:
# Group 1: Intratracheal administration of PBS.
# Group 2: Intratracheal administration of PBS.
# Group 3: Intratracheal administration of peptide SEQ ID No. 1.
# Days of treatment 0 to 10:
# Daily observation of body temperature, body weight and survival rate of the test animals.
# [5] = Lavage-induced large animal ARDS model; assay type: in vivo, pigs
# Protocol: Material & methods: With the consent of the competent animal protection commission, lung damage was induced in two pigs (25 kg) under general anesthesia by surfactant depletion (four-time bronchoalveolar lavage, 30 ml/kg of body weight each). Subsequently, 1 mg/kg of body weight AP301 (peptide SEQ ID No. 1) was endotracheally applied. Animal 1 (1) received a deep tracheal injection of the overall dose, while for animal 2 (2), nebulization of the same dosage over 30 min was performed. Thereafter, there was a five-hour ventilation period. The arterial oxygen partial pressure (paO2) was recorded using an intra-aortic real-time measuring probe (FOXY, Ocean Optics, USA) validated in advance. Spirometry and hemodynamics were permanently registered as well as measurements with the PiCCO technology performed at half-hour intervals.
# The ventilation settings were constantly kept in the non-protective range (Pmax 40 mbar, tidal volume≥10 ml/kg of body weight, PEEP≤10 mbar, frequency 25-35/min) in order to avoid therapeutic effects. […] 162.8 mmHg (1) or 224.6 mmHg (2), respectively. With nebulization of AP301, this occurred delayed compared to the deep tracheal application, however, it was more pronounced.
# [6] = test system: hyperpermeability of the lungs of mice; assay: Pneumolysin-induced hyperpermeability and acute lung damage in mice (Evans blue, leukocytes in bronchoalveolar liquid); conditions: 250 ng of pneumolysin and 50 μg of peptide per mouse intratracheal, 5.5 hours
Compound,formation of reactive oxygen molecules by the endothelial cells [1],hyperpermeability caused by the toxin listeriolysin (electric resistance) [2],hyperpermeability caused by the toxin listeriolysin (electric resistance) [3],increase in the content of phosphorylated myosin light chain by listeriolysin (myosin light chain),"content of phosphorylated myosin light chain, peptide alone (myosin light chain; 50 μg/ml of peptide without toxin)",expression of the sodium channel ENaC (mRNA) [4],"reduction of body weight (influenza A virus; 10 μg of peptide intratracheal on days 0, 2, 4, 6, 8, within 10 days)","body temperature after 7 days (influenza A virus; 10 μg of peptide intratracheal, after 7 days)","mortality after 10 days (influenza A virus; 10 μg of peptide intratracheal, fraction of test animals, 10 days)","body temperature subsequently (after day 7) (influenza A virus; 10 μg of peptide intratracheal, recovery after day 7)",decrease in body weight (overall conclusion) (influenza A virus; in words),lowering of the body temperature (overall conclusion) (influenza A virus; in words),survival rate (overall conclusion) (influenza A virus; in words),"paO2 increase, max. ([5]; animal 1, 1 mg/kg deep tracheal injection)","paO2 increase, max. ([5]; animal 2, 1 mg/kg nebulization over 30 min)","duration of continuous improvement of oxygenation ([5]; both pigs, 1 mg/kg endotracheally)","reduction of the extra-vascular lung water compared to the initial value following surfactant depletion ([5]; pigs, 1 mg/kg endotracheally, PiCCO)","undesired hemodynamic effects during application of the drug ([5]; pigs, 1 mg/kg of body weight endotracheally)",number of leukocytes in the bronchoalveolar liquid [6],toxin-mediated development of hyperpermeability (Evans blue dye in lung tissue) [6]
"C[C@@H]1NC(=O)CNC(=O)[C@H](CCC(=O)O)NC(=O)[C@@H]2CCCN2C(=O)[C@H]([C@@H](C)O)NC(=O)[C@H](CCC(=O)O)NC(=O)[C@H](CCCNC(=N)N)NC(=O)[C@H](CCC(N)=O)NC(=O)CNC(=O)[C@@H](N)CSSC[C@@H](C(=O)O)NC(=O)[C@H](Cc2ccc(O)cc2)NC(=O)[C@H](Cc2c[nH]c3ccccc23)NC(=O)[C@@H]2CCCN2C(=O)[C@H](CCCCN)NC(=O)[C@H](C)NC(=O)[C@H](CCC(=O)O)NC1=O [peptide SEQ ID No. 1, CGQRETPEGAEAKPWYC]",no reactive oxygen molecules are formed,inhibited,inhibited,inhibits,no influence,triplication; also recorded: substantial increase,approx. 10%,35 °C,⅓,37 °C,reduces the decrease,reduces the lowering,clearly increased,162.8 mmHg,224.6 mmHg,about 1.5 hours,15.8-52.5%,no undesired hemodynamic effects,clear reduction; also recorded: clearly less leukocytes,inhibition
"CGQREAPAGAAAKPWYC [peptide SEQ ID No. 3, reference compound]",does not result in an inhibition,–,–,no influence,–,no substantial increase,–,–,–,–,–,–,–,–,–,–,–,–,–,–
